In ChEMBL document CHEMBL1137320, “A novel class of carbonic anhydrase inhibitors: glycoconjugate benzene sulfonamides prepared by "click-tailing"” (J Med Chem, 2006):

Molecular target: Carbonic anhydrase 9 (Homo sapiens, UniProt Q16790)

Q: Which Ki does the source give for `NS(=O)(=O)c1ccc(C(=O)OCc2cn([C@@H]3OC[C@@H](O)[C@@H](O)[C@@H]3O)nn2)cc1` here?
A: 0.096 µM

Q: For `COC(=O)[C@H]1O[C@@H](n2cc(CNC(=O)c3ccc(S(N)(=O)=O)cc3)nn2)[C@H](OC(C)=O)[C@@H](OC(C)=O)[C@@H]1OC(C)=O`, which Ki is on record?
A: 0.471 µM

Q: Which Ki does the source give for `C#CCOC(=O)c1ccc(S(N)(=O)=O)cc1` here?
A: 0.104 µM

Q: How did the Ki turn out when `CC(=O)OC[C@H]1O[C@@H](n2cc(CNC(=O)c3ccc(S(N)(=O)=O)cc3)nn2)[C@H](OC(C)=O)[C@@H](OC(C)=O)[C@H]1OC(C)=O` was run?
A: 0.076 µM

Q: With `COC(=O)[C@H]1O[C@@H](n2cc(COC(=O)c3ccc(S(N)(=O)=O)cc3)nn2)[C@H](O)[C@@H](O)[C@@H]1O` as the compound, how does the Ki read?
A: 0.241 µM

Q: For `NS(=O)(=O)c1ccc(C(=O)OCc2cn([C@@H]3O[C@H](CO)[C@@H](O)[C@H](O)[C@H]3O)nn2)cc1`, which Ki is on record?
A: 0.183 µM

Q: Which Ki does the source give for `CC(=O)OC[C@H]1O[C@@H](n2cc(CNC(=O)c3ccc(S(N)(=O)=O)cc3)nn2)[C@H](OC(C)=O)[C@@H](OC(C)=O)[C@@H]1OC(C)=O` here?
A: 0.43 µM

Q: With `NS(=O)(=O)c1ccc(C(=O)NCc2cn([C@@H]3O[C@H](CO)[C@@H](O)[C@H](O)[C@H]3O)nn2)cc1` as the compound, how does the Ki read?
A: 0.442 µM

Q: With `CC(=O)N[C@@H]1[C@@H](OC(C)=O)[C@H](OC(C)=O)[C@@H](COC(C)=O)O[C@H]1n1cc(COC(=O)c2ccc(S(N)(=O)=O)cc2)nn1` as the compound, how does the Ki read?
A: 1.2 µM

Q: `NS(=O)(=O)c1ccc(C(=O)OCc2cn([C@@H]3O[C@H](CO)[C@H](O)[C@H](O)[C@H]3O)nn2)cc1` was tested. Which Ki did it give?
A: 0.065 µM

Q: How did the Ki turn out when `CO[C@H]1O[C@H](Cn2cc(CNC(=O)c3ccc(S(N)(=O)=O)cc3)nn2)[C@@H](O)[C@H](O)[C@H]1O` was run?
A: 0.204 µM

Q: How did the Ki turn out when `CC(=O)OC[C@H]1O[C@@H](n2cc(COC(=O)c3ccc(S(N)(=O)=O)cc3)nn2)[C@H](OC(C)=O)[C@@H](OC(C)=O)[C@@H]1O[C@H]1O[C@H](COC(C)=O)[C@@H](OC(C)=O)[C@H](OC(C)=O)[C@H]1OC(C)=O` was run?
A: 0.13 µM
